The values below come from the NIST ThermoML archive (doi:10.1021/je500358r).

For data set [1] the following is noted: for vapor or sublimation pressure: Liquid, Gas chromatography.
Data set [2] is described as follows: molar enthalpy of vaporization or sublimation. Conditions: 298 K; Liquid; DSC.
Data set [3] can be described thus: Molar enthalpy of transition or fusion. Conditions: DSC.

Numbers after ± are expanded uncertainties.

In general, vapor or sublimation pressure refers to the pressure of vapour in equilibrium with the condensed phase.

On to `CCCCCCCCCCCCCCCCN(C)C` [1-hexadecanamine, N,N-dimethyl-], for which the “vapor or sublimation pressure” value in data set [1] (283.15 K) is 2e-06 ± 1e-06 kPa; in data set [1] (288.15 K), 3e-06 ± 1e-06 kPa; in data set [1] (293.15 K) it was 6e-06 ± 1e-06 kPa; in data set [1] (298.15 K), 1.1e-05 ± 1e-06 kPa; in data set [1] (303.15 K) it was 1.9e-05 ± 2e-06 kPa; in data set [1] (308.15 K), 3.2e-05 ± 3e-06 kPa. In addition, in data set [1] (313.15 K), the “vapor or sublimation pressure” value was found to be 5.5e-05 ± 6e-06 kPa. Also, the molar enthalpy in data set [2] was 20.3 ± 2.87 kcal/mol.

Regarding `CCCCCCCCCCCCCCN(C)C` [1-tetradecanamine, N,N-dimethyl-], the “vapor or sublimation pressure” value is listed as 1.7e-05 ± 2e-06 kPa in data set [1] (283.15 K); 3.1e-05 ± 3e-06 kPa in data set [1] (288.15 K); 5.4e-05 ± 5e-06 kPa in data set [1] (293.15 K); 9.2e-05 ± 9e-06 kPa in data set [1] (298.15 K); 0.000153 ± 1.5e-05 kPa in data set [1] (303.15 K); 0.000253 ± 2.5e-05 kPa in data set [1] (308.15 K). For the same compound, in data set [1] (313.15 K), the “vapor or sublimation pressure” value amounted to 0.00041 ± 4.1e-05 kPa. The molar enthalpy in data set [2] is 18.5 ± 1 kcal/mol.

With `C#CCN(C)[C@H](C)Cc1ccccc1` [(R)-N-methyl-N-(1-phenylpropan-2-yl)prop-2-yn-1-amine], the “vapor or sublimation pressure” value in data set [1] (283.15 K) came out at 0.0006 ± 0.0001 kPa; in data set [1] (288.15 K), 0.001 ± 0.0001 kPa; in data set [1] (293.15 K), 0.0016 ± 0.0002 kPa; in data set [1] (298.15 K), 0.0025 ± 0.0003 kPa; in data set [1] (303.15 K) it was 0.0038 ± 0.0004 kPa; in data set [1] (308.15 K), 0.0058 ± 0.0006 kPa. In data set [1] (313.15 K), the “vapor or sublimation pressure” value was 0.0086 ± 0.0009 kPa. Further, in data set [2], the molar enthalpy stood at 15.4 ± 1.12 kcal/mol.

As to `C[C@@H](Cc1ccccc1)N(C)Cc1ccccc1` [(S)-N-benzyl-N-methyl-1-phenylpropan-2-amine], the “vapor or sublimation pressure” value in data set [1] (283.15 K) turned out to be 8e-06 ± 1e-06 kPa; in data set [1] (288.15 K), 1.4e-05 ± 2e-06 kPa; in data set [1] (293.15 K), 2.4e-05 ± 2e-06 kPa; in data set [1] (298.15 K) it was 4e-05 ± 4e-06 kPa; in data set [1] (303.15 K), 6.7e-05 ± 7e-06 kPa; in data set [1] (308.15 K), 0.000111 ± 1.1e-05 kPa. The “vapor or sublimation pressure” value in data set [1] (313.15 K) was 0.000179 ± 1.8e-05 kPa. Besides, in data set [2], the molar enthalpy is 18.5 ± 0.55 kcal/mol.

Consider `CCN(CCCc1ccccc1)CCCc1ccccc1` [N-ethyl-3-phenyl-N-(3-phenylpropyl)propan-1-amine], for which the “vapor or sublimation pressure” value came out at 2e-07 ± 1e-07 kPa in data set [1] (283.15 K); 4e-07 ± 1e-07 kPa in data set [1] (288.15 K); 7e-07 ± 1e-07 kPa in data set [1] (293.15 K); 1.4e-06 ± 2e-07 kPa in data set [1] (298.15 K); 2.5e-06 ± 3e-07 kPa in data set [1] (303.15 K); 4.5e-06 ± 5e-07 kPa in data set [1] (308.15 K). Moreover, the “vapor or sublimation pressure” value in data set [1] (313.15 K) is recorded as 7.8e-06 ± 8e-07 kPa. Besides, the molar enthalpy in data set [2] stood at 21.3 ± 0.669 kcal/mol.

For `c1ccc(CN(Cc2ccccc2)Cc2ccccc2)cc1` [benzenemethanamine, N,N-bis(phenylmethyl)-], the “vapor or sublimation pressure” value came to 7e-08 ± 2e-08 kPa in data set [1] (283.15 K); 1.4e-07 ± 2e-08 kPa in data set [1] (288.15 K); 2.7e-07 ± 4e-08 kPa in data set [1] (293.15 K); 5e-07 ± 6e-08 kPa in data set [1] (298.15 K); 9.3e-07 ± 1e-07 kPa in data set [1] (303.15 K); 1.7e-06 ± 1.8e-07 kPa in data set [1] (308.15 K). Moreover, in data set [1] (313.15 K), the “vapor or sublimation pressure” value was 3.03e-06 ± 3.1e-07 kPa. Moreover, the Normal melting temperature in data set [1] (Crystal 1, DTA) is 92.5 ± 0.4 °C. For the same compound, in data set [1] (Crystal 2, DTA), the Triple point temperature turned out to be 342.5 ± 0.9 K. Further, the “Molar enthalpy of transition or fusion” value is 5.5 ± 0.127 kcal/mol in data set [3] (Crystal 1) and 0.264 ± 0.0502 kcal/mol in data set [3] (Crystal 2). In data set [2], the molar enthalpy stood at 22.1 ± 0.837 kcal/mol.

Turning to `CCCCN(CCCC)CCCC` [tributylamine], the “vapor or sublimation pressure” value is recorded as 0.008 ± 0.001 kPa in data set [1] (283.15 K); 0.013 ± 0.001 kPa in data set [1] (288.15 K); 0.019 ± 0.002 kPa in data set [1] (293.15 K); 0.028 ± 0.003 kPa in data set [1] (298.15 K); 0.042 ± 0.004 kPa in data set [1] (303.15 K); 0.06 ± 0.006 kPa in data set [1] (308.15 K). The “vapor or sublimation pressure” value in data set [1] (313.15 K) stood at 0.087 ± 0.009 kPa. In addition, the molar enthalpy in data set [2] is 13.9 ± 0.98 kcal/mol.

As for `CC(C)CN(CC(C)C)CC(C)C` [triisobutylamine], the “vapor or sublimation pressure” value is recorded as 0.037 ± 0.004 kPa in data set [1] (283.15 K); 0.055 ± 0.006 kPa in data set [1] (288.15 K); 0.079 ± 0.008 kPa in data set [1] (293.15 K); 0.113 ± 0.011 kPa in data set [1] (298.15 K); 0.159 ± 0.016 kPa in data set [1] (303.15 K); 0.222 ± 0.022 kPa in data set [1] (308.15 K). In addition, the “vapor or sublimation pressure” value in data set [1] (313.15 K) is 0.306 ± 0.031 kPa. Further, the molar enthalpy in data set [2] came to 12.5 ± 1.1 kcal/mol.

On to `CCCCCCCCN(CCCCCCCC)CCCCCCCC` [trioctylamine], for which the “vapor or sublimation pressure” value came to 2e-08 ± 1e-08 kPa in data set [1] (283.15 K); 3e-08 ± 1e-08 kPa in data set [1] (288.15 K); 7e-08 ± 2e-08 kPa in data set [1] (293.15 K); 1.4e-07 ± 2e-08 kPa in data set [1] (298.15 K); 2.8e-07 ± 4e-08 kPa in data set [1] (303.15 K); 5.3e-07 ± 6e-08 kPa in data set [1] (308.15 K). Besides, the “vapor or sublimation pressure” value in data set [1] (313.15 K) is 1e-06 ± 1.1e-07 kPa. Besides, in data set [2], the molar enthalpy stood at 23.9 ± 0.837 kcal/mol.

Consider `CCCN(CCC)CCC` [tripropylamine], for which the “vapor or sublimation pressure” value in data set [1] (283.15 K) came to 0.199 ± 0.02 kPa; in data set [1] (288.15 K), 0.278 ± 0.028 kPa; in data set [1] (293.15 K), 0.384 ± 0.038 kPa; in data set [1] (298.15 K), 0.524 ± 0.052 kPa; in data set [1] (303.15 K), 0.709 ± 0.071 kPa; in data set [1] (308.15 K) it was 0.949 ± 0.095 kPa. Moreover, the “vapor or sublimation pressure” value in data set [1] (313.15 K) is given as 1.259 ± 0.13 kPa.
